Columns and labels:
BaF3_EGFR LR/CS cells = assay: Biological Activity Assay D: BaF3 cell proliferation assay, EGFR L858R/C797S mutant (BaF3 LR/CS); format: cell-based; conditions: Ba/F3 EGFR; BaF3_EGFR LR/CS cells, ~72 hours, CellTiter-Glo; read-out: BaF3 LR/CS IC50
[1] = target: recombinant human EGFR exon 19 deletion/C797S double mutant protein (Homo sapiens (Human), UniProt P00533, C797S/DEL746-750); assay: Biological Activity Assay C: biochemical assay against EGFR exon 19 deletion/C797S protein (EGFR d19/CS)
Chain of recombinant human EGFR exon 19 deletion/C797S double mutant protein (P00533 other isoform, or with tags, fused parts or gaps C797S/del 1-668/del 746-750 limits assumed): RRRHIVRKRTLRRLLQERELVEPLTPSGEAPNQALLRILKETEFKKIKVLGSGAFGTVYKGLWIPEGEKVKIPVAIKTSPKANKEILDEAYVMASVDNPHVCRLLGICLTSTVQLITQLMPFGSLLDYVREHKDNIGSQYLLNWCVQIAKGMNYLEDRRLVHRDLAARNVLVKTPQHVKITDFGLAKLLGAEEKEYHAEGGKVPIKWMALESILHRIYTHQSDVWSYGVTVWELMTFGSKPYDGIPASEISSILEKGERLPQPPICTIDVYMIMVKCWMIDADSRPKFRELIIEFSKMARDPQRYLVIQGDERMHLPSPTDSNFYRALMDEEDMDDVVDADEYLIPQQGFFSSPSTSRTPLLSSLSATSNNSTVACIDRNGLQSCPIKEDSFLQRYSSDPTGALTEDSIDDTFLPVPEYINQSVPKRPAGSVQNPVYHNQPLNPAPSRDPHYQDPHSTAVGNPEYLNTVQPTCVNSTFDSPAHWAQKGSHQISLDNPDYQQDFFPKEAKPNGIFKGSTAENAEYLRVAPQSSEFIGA
Summary of the method: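 Compounds were tested as 16-point serial dilutions (final DMSO 2.5%) with a Phosphosens peptide sensor/ATP working solution (40 uM/4 mM). The signal was read kinetically over 90 cycles at 120 s intervals. IC50s came from 4-parameter fits of per-well slopes.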

BaF3_EGFR d19/CS cells = assay: Biological Activity Assay D: BaF3 cell proliferation assay, EGFR exon 19 deletion/C797S (BaF3 d19/CS); format: cell-based; conditions: Ba/F3 EGFR; BaF3_EGFR d19/CS cells, ~72 hours, CellTiter-Glo; read-out: BaF3 d19/CS IC50
Ba/F3_EGFR WT cells = assay: Biological Activity Assay D: BaF3 cell proliferation assay, EGFR wild-type (BaF3 WT); format: cell-based; conditions: Ba/F3 EGFR; Ba/F3_EGFR WT cells, ~72 hours, CellTiter-Glo; read-out: BaF3 WT IC50
[2] = target: recombinant human EGFR L858R/C797S double mutant protein (Homo sapiens (Human), UniProt P00533, C797S/L858R); assay: Biological Activity Assay B: biochemical assay against EGFR L858R/C797S protein (EGFR LR/CS)
Chain of recombinant human EGFR L858R/C797S double mutant protein (P00533 25-1210 C797S/L858R): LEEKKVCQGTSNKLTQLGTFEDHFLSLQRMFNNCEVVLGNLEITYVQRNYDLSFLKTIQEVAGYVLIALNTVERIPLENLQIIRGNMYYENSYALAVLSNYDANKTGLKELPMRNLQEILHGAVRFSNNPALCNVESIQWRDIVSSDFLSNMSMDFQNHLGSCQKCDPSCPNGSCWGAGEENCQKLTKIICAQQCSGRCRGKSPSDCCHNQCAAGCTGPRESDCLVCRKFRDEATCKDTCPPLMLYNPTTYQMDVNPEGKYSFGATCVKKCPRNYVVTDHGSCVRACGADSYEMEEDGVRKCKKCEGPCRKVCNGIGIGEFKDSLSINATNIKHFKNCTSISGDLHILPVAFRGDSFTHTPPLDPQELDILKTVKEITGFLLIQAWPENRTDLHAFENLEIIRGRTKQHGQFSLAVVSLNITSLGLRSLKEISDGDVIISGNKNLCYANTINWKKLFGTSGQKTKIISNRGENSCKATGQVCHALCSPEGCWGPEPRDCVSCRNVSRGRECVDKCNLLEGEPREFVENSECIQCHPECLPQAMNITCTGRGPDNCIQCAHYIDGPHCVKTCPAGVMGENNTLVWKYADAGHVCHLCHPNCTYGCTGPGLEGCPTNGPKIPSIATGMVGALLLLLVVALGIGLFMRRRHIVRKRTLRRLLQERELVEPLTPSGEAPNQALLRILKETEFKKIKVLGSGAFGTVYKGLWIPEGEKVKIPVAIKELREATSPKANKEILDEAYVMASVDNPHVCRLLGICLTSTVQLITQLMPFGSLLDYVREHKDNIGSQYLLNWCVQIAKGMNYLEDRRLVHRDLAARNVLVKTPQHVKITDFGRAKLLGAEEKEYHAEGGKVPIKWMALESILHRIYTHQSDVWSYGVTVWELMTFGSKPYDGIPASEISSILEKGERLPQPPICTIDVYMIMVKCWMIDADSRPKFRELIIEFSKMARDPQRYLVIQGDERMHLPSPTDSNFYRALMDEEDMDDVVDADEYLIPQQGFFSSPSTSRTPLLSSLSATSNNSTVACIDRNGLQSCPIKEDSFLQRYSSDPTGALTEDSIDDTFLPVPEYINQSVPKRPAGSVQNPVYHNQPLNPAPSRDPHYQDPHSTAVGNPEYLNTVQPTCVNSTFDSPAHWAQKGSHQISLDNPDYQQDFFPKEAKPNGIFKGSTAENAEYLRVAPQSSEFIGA
Description: In Row A of a 384-well polypropylene plate, was added 48 μL of DMSO. In wells A1 and A24, were added 12 μL of DMSO. […] To a well in Row A were added 12 μL of each 10 mM test compound stock (100% DMSO). […] The final intermediate dilution plate contained 4×16-point compound serial dilutions in assay buffer. The DMSO concentration was 10%. The intermediate compound dilution plate was transferred to the Bravo and the “5 uL dispense into ARP.pro” protocol was run. To the black low volume assay ready plates, were added 5 μL of 40 uM Phosphosens peptide sensor/4 mM ATP working solution to each well. […] To column 24, was added 10 μL of assay buffer. The final DMSO concentration was 2.5%. […] The plates were sealed with the TopSeal-A Plus plate seals. […] Set for 90 cycles with 120 second interval. […] The slope of each curve was constructed using Dotmatics in each well, and each IC50s was calculated using a 4-parameter fit model.

SMILES | IC50 (BaF3_EGFR LR/CS cells) [nM] | IC50 [1] [nM] | IC50 (BaF3_EGFR d19/CS cells) [nM] | IC50 (Ba/F3_EGFR WT cells) [nM] | IC50 [2] [nM]
O=S1(=O)CCC[C@H](n2cc(-c3ncnc4oc(-c5ccccc5)cc34)c(-c3ccc(F)cc3)n2)C1 (single isomer, unassigned) [Example 100] | 407 | 4.23 | 319 | 13300 | 2.76
CS(=O)(=O)N1CC[C@@H](n2cc(-c3ncnc4oc(-c5ccccc5)cc34)c(-c3ccc(F)cc3)n2)C1 (single isomer, unassigned) [Example 101] | 8.69 | 0.27 | 4.96 | 115 | 0.39
CS(=O)(=O)N1CC[C@H](n2cc(-c3ncnc4oc(-c5ccccc5)cc34)c(-c3ccc(F)cc3)n2)C1 (single isomer, unassigned) [Example 102] | 21.1 | 0.2 | 16.5 | 161 | 0.35
OCCCc1nc(-c2ccc(F)cc2)n(-c2ccnc3[nH]c(-c4ccccc4)cc23)n1 [Example 3, 3-[5-(4-Fluorophenyl)-1-(2-phenyl-1H-pyrrolo[2,3-b]pyridin-4-yl)-1H-1,2,4-triazol-3-yl]propan-1-ol] | 130 | 1.66 | 169 | 808 | 3.15
OCCCn1cc(-c2ccnc3[nH]c(-c4ccccc4)nc23)c(-c2ccc(F)cc2)n1 [Example 4, 3-[3-(4-Fluorophenyl)-4-(2-phenyl-3H-imidazo[4,5-b]pyridin-7-yl)-1H-pyrazol-1-yl]propan-1-ol] | 32.1 | 0.466 | 36.4 | 1400 | 1.29
OCCCn1cc(-c2ncnc3oc(-c4ccccc4)nc23)c(-c2ccc(F)cc2)n1 [Example 5, 3-[3-(4-Fluorophenyl)-4-(2-phenyl[1,3]oxazolo[5,4-d]pyrimidin-7-yl)-1H-pyrazol-1-yl]propan-1-ol] | 80.3 | 0.45 | 90.6 | 2430 | 1.2
OCCCn1cc(-c2ncnc3[nH]c(-c4ccccc4)nc23)c(-c2ccc(F)cc2)n1 [Example 6, 3-[3-(4-Fluorophenyl)-4-(8-phenyl-9H-purin-6-yl)-1H-pyrazol-1-yl]propan-1-ol] | 4.4 | 0.148 | 5.81 | 1100 | 0.253
OCCCc1nc(-c2ccc(F)cc2)c(-c2ccnc3[nH]c(-c4ccccc4)cc23)s1 [Example 8, 3-[4-(4-Fluorophenyl)-5-(2-phenyl-1H-pyrrolo[2,3-b]pyridin-4-yl)-1,3-thiazol-2-yl]propan-1-01] | 19.6 | 1.14 | 19.6 | 754 | 1.09
OCCCn1cc(-c2ncnc3[nH]c(-c4ccccc4)cc23)c(-c2ccc(F)cc2)n1 [Example 9, 3-[3-(4-Fluorophenyl)-4-(6-phenyl-7H-pyrrolo[2,3-d]pyrimidin-4-yl)-1H-pyrazol-1-yl]propan-1-ol] | 0.63 | 0.121 | 0.547 | 15.4 | 0.099
CN1CCN(c2ccc(-c3nc4c(-c5cn(CCCO)nc5-c5ccc(F)cc5)ncnc4o3)cc2)CC1 [Example 10, 3-[3-(4-Fluorophenyl)-4-{2-[4-(4-methylpiperazin-1-yl)phenyl][1,3]oxazolo[5,4-d]pyrimidin-7-yl}-1H-pyrazol-1-yl]propan-1-ol] | 1.63 | 0.113 | 1.31 | 74 | 0.152
OCCCn1cc(-c2ncnc3oc(-c4ccccc4)cc23)c(-c2ccc(F)cc2)n1 [Example 11, 3-[3-(4-Fluorophenyl)-4-(6-phenylfuro[2,3-d]pyrimidin-4-yl)-1H-pyrazol-1-yl]propan-1-ol] | 6.91 | 0.408 | 5.79 | 594 | 0.521
